Where a name gives a salt, the structure may show the parent alone.
How the values were obtained:
EGFR WT = EGFR WT (Homo sapiens (Human), UniProt P00533); experiment: ErbB enzyme assay (CisBio HTRF-KinEASE-TK), EGFR WT; assay type: biochemical; conditions: ATP at Km (25 μM), 1 h incubation
Summary of the method: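 Three-fold DMSO serial dilutions were added to kinase reactions and incubated 1 h at room temperature. Quench used 62.5 nM Sa-XL665 plus 0.25×TK-Ab-Cryptate in detection buffer, followed by another 1 h. Substrate phosphorylation was then measured by dual-wavelength HTRF.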

EGFR wild type = EGFR wild type (Homo sapiens (Human), UniProt P00533); experiment: ErbB cellular phosphorylation assay (phospho-EGFR ELISA), HEK-293 cells expressing EGFR wild type, EGF stimulated; assay type: cell-based; conditions: 1 h treatment
Sequence of EGFR wild type (P00533 25-1210): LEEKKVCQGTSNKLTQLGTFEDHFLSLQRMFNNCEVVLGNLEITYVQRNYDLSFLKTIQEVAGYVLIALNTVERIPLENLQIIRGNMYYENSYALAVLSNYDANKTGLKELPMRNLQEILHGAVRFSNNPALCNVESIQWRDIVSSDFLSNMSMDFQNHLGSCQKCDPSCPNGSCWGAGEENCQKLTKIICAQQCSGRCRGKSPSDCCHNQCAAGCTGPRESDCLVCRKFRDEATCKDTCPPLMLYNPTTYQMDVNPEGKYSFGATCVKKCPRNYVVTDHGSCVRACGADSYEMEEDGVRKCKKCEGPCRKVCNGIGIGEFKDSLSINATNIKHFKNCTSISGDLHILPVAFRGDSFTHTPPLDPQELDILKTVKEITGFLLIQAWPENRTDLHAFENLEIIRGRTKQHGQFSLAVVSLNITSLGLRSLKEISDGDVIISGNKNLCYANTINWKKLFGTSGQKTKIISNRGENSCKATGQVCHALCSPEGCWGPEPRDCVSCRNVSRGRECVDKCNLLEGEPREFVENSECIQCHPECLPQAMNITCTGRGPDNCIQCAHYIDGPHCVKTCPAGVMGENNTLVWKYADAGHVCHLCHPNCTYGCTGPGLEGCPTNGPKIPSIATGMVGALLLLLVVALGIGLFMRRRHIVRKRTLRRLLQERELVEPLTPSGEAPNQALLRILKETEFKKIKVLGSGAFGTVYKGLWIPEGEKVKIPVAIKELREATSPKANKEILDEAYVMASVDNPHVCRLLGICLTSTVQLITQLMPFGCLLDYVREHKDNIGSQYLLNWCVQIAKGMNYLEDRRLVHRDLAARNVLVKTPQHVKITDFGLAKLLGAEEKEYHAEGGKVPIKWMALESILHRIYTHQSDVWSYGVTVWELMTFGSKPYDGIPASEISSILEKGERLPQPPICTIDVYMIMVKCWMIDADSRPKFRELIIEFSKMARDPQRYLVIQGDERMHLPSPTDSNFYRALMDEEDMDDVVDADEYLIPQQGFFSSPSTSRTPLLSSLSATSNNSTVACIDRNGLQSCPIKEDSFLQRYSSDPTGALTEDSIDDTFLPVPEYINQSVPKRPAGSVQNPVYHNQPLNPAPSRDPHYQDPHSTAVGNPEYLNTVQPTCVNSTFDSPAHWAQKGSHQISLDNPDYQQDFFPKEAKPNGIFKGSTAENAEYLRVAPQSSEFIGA
Method: HEK-293 cells were engineered to constitutively express ErbB2 mutant L755S or EGFR wild type (constructs obtained from GenScript, Piscataway, NJ). Cells were seeded in poly-D-lysine coated, 96-well plates at a density of 50,000 cells/well in complete medium (DMEM supplemented with 10% fetal bovine serum and G418) and incubated for 24 h at 37° C., 5% CO2 prior to treatment. Cells were treated with compound using three-fold dilutions at final concentrations ranging from […] for 1 h at 37° C., 5% CO2. EGFR-WT cells were stimulated with 500 ng/mL recombinant human EGF (R&D Systems, 236-EG) for an additional 5 min. After compound incubation, medium was removed from the plate, and cells were lysed in buffer containing protease and phosphatase inhibitors ([…]). Cell lysates were analyzed by enzyme-linked immunosorbent assay (ELISA). The ELISAs were performed to measure phosphorylated ErbB2 or phosphorylated EGFR levels, respectively (R&D Systems, DYC-1768, Human Phospho-ErbB2 DuoSet ELISA; DYC1095, Human Phospho-EGFR DuoSet IC ELISA) according to the manufacturer's instructions. Absorbance was measured at 450 nm using a BioTek Cytation 5 plate reader (Agilent, Santa Clara, CA) and IC50 values were calculated using a 4-parameter fit.

ErbB2 V777L = ErbB2 V777L (Homo sapiens (Human), UniProt P04626, V777L); experiment: ErbB enzyme assay (CisBio HTRF-KinEASE-TK), ErbB2 V777L; assay type: biochemical
Sequence of ErbB2 V777L (P04626 23-1255 V777L): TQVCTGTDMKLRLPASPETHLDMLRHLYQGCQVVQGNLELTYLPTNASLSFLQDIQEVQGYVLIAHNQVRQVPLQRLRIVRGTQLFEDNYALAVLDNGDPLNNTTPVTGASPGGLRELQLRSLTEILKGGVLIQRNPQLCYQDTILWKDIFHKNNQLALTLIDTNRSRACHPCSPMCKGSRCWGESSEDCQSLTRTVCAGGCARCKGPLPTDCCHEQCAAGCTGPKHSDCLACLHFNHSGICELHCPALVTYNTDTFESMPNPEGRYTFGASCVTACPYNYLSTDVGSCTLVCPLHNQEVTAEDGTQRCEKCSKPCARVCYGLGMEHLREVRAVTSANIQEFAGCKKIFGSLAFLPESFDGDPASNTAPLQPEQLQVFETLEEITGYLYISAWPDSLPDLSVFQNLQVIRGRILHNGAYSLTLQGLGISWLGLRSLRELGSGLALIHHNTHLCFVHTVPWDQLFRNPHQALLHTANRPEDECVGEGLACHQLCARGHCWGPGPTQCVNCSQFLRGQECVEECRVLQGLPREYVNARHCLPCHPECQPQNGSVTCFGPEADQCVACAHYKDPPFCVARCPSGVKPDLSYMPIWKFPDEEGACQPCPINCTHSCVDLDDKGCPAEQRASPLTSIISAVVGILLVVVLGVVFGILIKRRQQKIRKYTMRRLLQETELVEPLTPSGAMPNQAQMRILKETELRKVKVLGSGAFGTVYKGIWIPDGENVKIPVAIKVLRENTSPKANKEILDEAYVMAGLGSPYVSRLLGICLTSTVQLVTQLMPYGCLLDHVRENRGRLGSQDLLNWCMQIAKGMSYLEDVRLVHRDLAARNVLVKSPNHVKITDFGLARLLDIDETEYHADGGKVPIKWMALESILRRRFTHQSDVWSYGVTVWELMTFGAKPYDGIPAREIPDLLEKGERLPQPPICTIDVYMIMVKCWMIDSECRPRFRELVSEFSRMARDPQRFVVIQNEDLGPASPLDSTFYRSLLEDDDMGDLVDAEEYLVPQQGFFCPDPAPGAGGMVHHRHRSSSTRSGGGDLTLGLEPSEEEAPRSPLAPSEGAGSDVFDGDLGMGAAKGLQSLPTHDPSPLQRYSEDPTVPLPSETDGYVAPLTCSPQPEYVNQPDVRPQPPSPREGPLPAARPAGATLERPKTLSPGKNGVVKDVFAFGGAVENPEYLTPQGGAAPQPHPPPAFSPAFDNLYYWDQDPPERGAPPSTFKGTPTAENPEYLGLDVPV
Summary of the method: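 HTRF KinEASE-TK tyrosine-kinase read-out of substrate phosphorylation after a final 1 h at ambient temperature, from the 655/620 nm emission ratio.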

Sequence of EGFR WT (P00533 25-1210): as the sequence (P00533 25-1210) above

IC50 (EGFR WT)	IC50 (EGFR wild type)	IC50 (ErbB2 V777L)	SMILES
< 50 nM	1 to 5 µM		C=CC(=O)N1CCN(c2ncc3ncnc(Nc4ccc(Oc5cc(F)c6c(c5)nnn6C)c(C)c4)c3n2)CC1 [Compound 4, 1-(4-(8-((4-((7-fluoro-1-methyl-1H-benzo[d][1,2,3]triazol-5-yl)oxy)-3-methylphenyl)amino)pyrimido[5,4-d]pyrimidin-2-yl)piperazin-1-yl)prop-2-en-1-one]
100 to 500 nM	≥ 5 µM		C=CC(=O)N1CCN(c2ncc3ncnc(Nc4cc(C)c(Oc5ccc6c(c5)ncn6C)cc4OC)c3n2)CC1 [Compound 11, 1-(4-(8-((2-methoxy-5-methyl-4-((1-methyl-1H-benzo[d]imidazol-5-yl)oxy)phenyl)amino)pyrimido[5,4-d]pyrimidin-2-yl)piperazin-1-yl)prop-2-en-1-one 2,2,2-trifluoroacetate]
100 to 500 nM	≥ 5 µM		C=CC(=O)N1CCN(c2ccc3ncnc(Nc4ccc(Oc5ccc6c(c5)nnn6C)c(C)c4)c3n2)[C@@H](C)C1 [Compound 90, (S)-1-(3-methyl-4-(4-((3-methyl-4-((1-methyl-H-benzo[d][1,2,3]triazol-5-yl)oxy)phenyl)amino)pyrido[3,2-d]pyrimidin-6-yl)piperazin-1-yl)prop-2-en-1-one 2,2,2-trifluoroacetate]
< 50 nM	≥ 5 µM		C=CC(=O)N1CCN(c2ccc3ncnc(Nc4ccc(Oc5ccc6c(c5)nnn6C)c(C)c4F)c3n2)CC1 [Compound 95, 1-(4-(4-((2-fluoro-3-methyl-4-((1-methyl-1H-benzo[d][1,2,3]triazol-5-yl)oxy)phenyl)amino)pyrido[3,2-d]pyrimidin-6-yl)piperazin-1-yl)prop-2-en-1-one]
< 50 nM	1 to 5 µM		C=CC(=O)N1CCN(c2ncc3ncnc(Nc4ccc(Oc5ccc6c(c5)ncn6C(F)F)c(C)c4F)c3n2)CC1 [Compound 21, 1-(4-(8-((4-((1-(difluoromethyl)-1H-benzo[d]imidazol-5-y1)oxy)-2-fluoro-3-methylphenyl)amino)pyrimido[5,4-d]pyrimidin-2-yl)piperazin-1-yl)prop-2-en-1-one]
100 to 500 nM	≥ 5 µM		C=CC(=O)N1C2CCC1CN(c1ncc3ncnc(Nc4cc(C)c(Oc5cc(F)c6c(c5)ncn6C)cc4OC)c3n1)C2 [Compound 42, 1-(3-(8-((4-((7-fluoro-1-methyl-1H-benzo[d]imidazol-5-yl)oxy)-2-methoxy-5-methylphenyl)amino)pyrimido[5,4-d]pyrimidin-2-y1)-3,8-diazabicyclo[3.2.1]octan-8-yl)prop-2-en-1-one]
100 to 500 nM	≥ 5 µM		C=CC(=O)N1CCN(c2ncc3ncnc(Nc4ccc(Oc5ccc6c(c5)nnn6C)c(C)c4)c3n2)C[C@@H]1CO [Compound 25, (R)-1-(2-(hydroxymethyl)-4-(8-((3-methyl-4-((1-methyl-1H-benzo[d][1,2,3]triazol-5-yl)oxy)phenyl)amino)pyrimido[5,4-d]pyrimidin-2-y1)piperazin-1-yl)prop-2-en-1-one]
100 to 500 nM	1 to 5 µM		C=CC(=O)N1C2CCC1CN(c1ccc3ncnc(Nc4ccc(Oc5ccc6c(c5)nnn6C)c(C)c4)c3n1)C2 [Compound 70, 1-(3-(4-((3-methyl-4-((1-methyl-1H-benzo[d][1,2,3]triazol-5-yl)oxy)phenyl)amino)pyrido[3,2-d]pyrimidin-6-yl)-3,8-diazabicyclo[3.2.1]octan-8-yl)prop-2-en-1-one]
50 to 100 nM	≥ 5 µM		C=CC(=O)N1CC=C(c2ccc3ncnc(Nc4ccc(Oc5ccc6c(c5)nnn6C)c(C)c4)c3n2)C1 [Compound 110, 1-(3-(4-((3-methyl-4-((1-methyl-1H-benzo[d][1,2,3]triazol-5-yl)oxy)phenyl)amino)pyrido[3,2-d]pyrimidin-6-yl)-2,5-dihydro-1H-pyrrol-1-yl)prop-2-en-1-one]
100 to 500 nM	≥ 5 µM		C=CC(=O)N1CC=C(c2ccc3ncnc(Nc4ccc(Oc5ccc6c(c5)nnn6C)c(C)c4)c3n2)CC1 [Compound 109, 1-(4-(4-((3-methyl-4-((1-methyl-1H-benzo[d][1,2,3]triazol-5-yl)oxy)phenyl)amino)pyrido[3,2-d]pyrimidin-6-yl)-3,6-dihydropyridin-1(2H)-yl)prop-2-en-1-one trifluoroacetate]
100 to 500 nM		100 to 500 nM	C=CC(=O)N1CCN(c2ncc3ncnc(Nc4c(F)cc(Oc5ccc6c(c5)nnn6C)c(F)c4F)c3n2)CC1 [Compound 19, 1-(4-(8-((2,3,6-trifluoro-4-((1-methyl-1H-benzo[d][1,2,3]triazol-5-yl)oxy)phenyl)amino)pyrimido [5,4-d]pyrimidin-2-yl)piperazin-1-yl)prop-2-en-1-one]
100 to 500 nM		100 to 500 nM	C=CC(=O)N1CCC(Oc2ncc3ncnc(Nc4ccc(Oc5ccn6ncnc6c5)c(C)c4)c3n2)C1 (centres unmarked) [Compound 377, 1-(3-((8-((4-([1,2,4]triazolo[1,5-a]pyridin-7-yloxy)-3-methylphenyl)amino)pyrimido[5,4-d]pyrimidin-2-yl)oxy)pyrrolidin-1-yl)prop-2-en-1-one]
≥ 1000 nM		500 to 1000 nM	C=CC(=O)N1CCN(c2ccc3ncnc(Nc4ccc(Oc5ccc6c(c5)nnn6C)c(C)c4)c3n2)CC[C@H]1C [Compound 356, (R)-1-(7-methyl-4-(4-((3-methyl-4-((1-methyl-1H-benzo[d][1,2,3]triazol-5-yl)oxy)phenyl)amino)pyrido[3,2-d]pyrimidin-6-yl)-1,4-diazepan-1-yl)prop-2-en-1-one]
100 to 500 nM		100 to 500 nM	C=CC(=O)N1CCN(c2ncc3ncnc(Nc4ccc(Oc5ccc6c(c5)nnn6C)cc4F)c3n2)CC1 [Compound 22, 1-(4-(8-((2-fluoro-4-((1-methyl-1H-benzo[d][1,2,3]triazol-5-yl)oxy)phenyl)amino)pyrimido[5,4-d]pyrimidin-2-yl)piperazin-1-yl)prop-2-en-1-one]
500 to 1000 nM		50 to 100 nM	C=CC(=O)N1CCCN(c2ccc3ncnc(Nc4ccc(Oc5ccn6ncnc6c5)c(C)c4)c3n2)CC1 [Compound 357, 1-(4-(4-((4-([1,2,4]triazolo[1,5-a]pyridin-7-yloxy)-3-methylphenyl)amino)pyrido[3,2-d]pyrimidin-6-yl)-1,4-diazepan-1-yl)prop-2-en-1-one]
100 to 500 nM		50 to 100 nM	C=CC(=O)N1CC2(CC(N(C)c3ncc4ncnc(Nc5ccc(Oc6ccc7c(c6)nnn7C)c(C)c5)c4n3)C2)C1 [Compound 124, 1-(6-(methyl(8-((3-methyl-4-((1-methyl-1H-benzo[d][1,2,3]triazol-5-yl)oxy)phenyl)amino)pyrimido [5,4-d]pyrimidin-2-yl)amino)-2-azaspiro[3.3]heptan-2-yl)prop-2-en-1-one]
≥ 1000 nM		500 to 1000 nM	C=CC(=O)N1CCN(c2ccc3ncnc(Nc4ccc(Oc5ccc6c(c5)nnn6C)c(C)c4F)c3n2)C[C@@H]1C1CC1 [Compound 271, (S)-1-(2-cyclopropyl-4-(4-((2-fluoro-3-methyl-4-((1-methyl-1H-benzo[d][1,2,3]triazol-5-yl)oxy)phenyl)amino)pyrido[3,2-d]pyrimidin-6-yl)piperazin-1-yl)prop-2-en-1-one]
100 to 500 nM		100 to 500 nM	C=CC(=O)N[C@@H]1CCCN(c2ccc3ncnc(Nc4ccc(Oc5ccc6c(c5)nnn6C)c(C)c4F)c3n2)C1 [Compound 260, (R)-N-(1-(4-((2-fluoro-3-methyl-4-((1-methyl-1H-benzo[d][1,2,3]triazol-5-yl)oxy)phenyl)amino)pyrido[3,2-d]pyrimidin-6-yl)piperidin-3-yl)acrylamide]
100 to 500 nM		50 to 100 nM	C=CC(=O)N1C2CCCC1CC(c1ccc3ncnc(Nc4cc(C)c(Oc5ccc6c(c5)nnn6C)cc4OC)c3n1)C2 (centres unmarked) [Compound 401, 1-(3-(4-((2-methoxy-5-methyl-4-((1-methyl-1H-benzo[d][1,2,3]triazol-5-yl)oxy)phenyl)amino)pyrido[3,2-d]pyrimidin-6-yl)-9-azabicyclo[3.3.1]nonan-9-yl)prop-2-en-1-one trifluoroacetatexc]

Source: patent US20250129078A1, “ERBB2 INHIBITORS” (Cogent Biosciences, Inc., priority 2023, published 2025)
